# According to patent US20230338363A1, “COMBINATION CHEMO-IMMUNOTHERAPY FOR PANCREATIC CANCER USING THE IMMUNOGENIC EFFECTS OF AN IRINOTECAN SILICASOME NANOCARRIER PLUS ANTI-PD-1” (The Regents of the University of California, priority 2020, published 2023):
# Where a name gives a salt, the structure may show the parent alone.
# System: KPC cells
# Test: Autophagy (LC3B, p62) and PD-L1 expression by IF staining and immunoblotting
# Type: cell-based, mouse
# Procedure: KPC cells were seeded in the µ-Slide 8 well. After cell attachment, the cells were treated by IRIN at 300 µM for 24 h. Control treatments included exposure to PBS, chloroquine (32 µM), rapamycin (100 nM) and IFN-γ (10 ng/ml). Before IF staining, the cells were washed with PBS and fixed with 4% paraformaldehyde at RT for 15 minutes. Cells were treated in 1% BSA (blocking reagent) plus 0.2% triton-X100 in PBS for 30 minutes. Subsequently, the cells were incubated with primary antibody that recognizes LC3B (Cell Signaling #2775, 1:200) or p62/SQSTM1 (Cell Signaling #23214, 1:800) in 1% BSA containing PBS solution at 4° C. overnight. The sample was washed twice in PBS and further stained using an Alexa Fluor® 488 conjugated goat anti-rabbit secondary antibody (Thermo Fisher, A-11008, 1:1000) and 5 µg/mL Hoechst 33342 dye for 1 h. Cell surface staining for PD-L1 assessment was carried out in fixed (4% paraformaldehyde) cells, using a staining process similar to the above protocol. Primary PD-L1 antibody (Abcam, ab213480, 1: 500) and Alexa Fluor® 594 conjugated goat anti-rabbit secondary antibody (Thermo Fisher, A-11012, 1:1000) were used. The cells were visualized using a Leica SP8-MD confocal microscope under the 100x objective lens.
# To confirm the confocal staining results for LC3B, p62 and PD-L1, western blotting experiments were performed in KPC cells exposed to IRIN (300 µM) or OX (500 µM) for 24 hr. Another experiment also looked at the dose-dependent effect of IRIN at concentrations of 75, 150, 300 and 600 µM for 24 h. Briefly, ~2×10^5 KPC cells per well were seeded in 6 well-plates. After drug exposure, KPC cells were harvested and treated with cold RIPA lysis buffer (Cell Signaling # 9806S), supplemented with a cocktail of protease and phosphatase inhibitors (Cell Signaling #5872) and incubated on ice for 30 mins. After centrifugation of the lysates at 12,000 rpm for 10 min, protein concentration was quantified by a Bradford assay (Biorad). Equal amounts of protein in the supernatants were loaded onto a 10-20% Tris-glycine SDS-PAGE gel (Invitrogen, Grand Island, NY). The proteins were subsequently transferred to a PVDF membrane. The membrane was blocked with 5% non-fat dry milk/TBST, before incubation with primary and HRP-conjugated secondary antibodies. The primary antibodies included: LC3B (Cell Signaling #2775), p62/SQSTM1 (Cell Signaling #5114), NF-κB p65 (Cell Signaling #8242), Phospho-NF-xB p65 (Cell Signaling #3033) and PD-L1 (Abcam, ab213480). The blots were developed by soaking in ECL substrate (Thermo Fisher Scientific). Densitometric analysis of each protein band on the film was quantified by ImageJ software and normalized to the intensity of a corresponding housekeeping protein.
# The of the IRIN silicasome on lysosomal alkalization was performed at drug concentrations of 75 µM and 300 µM in KPC cells. Empty silicasomes (in which a 500 µg/mL particle dose is representative of an encapsulated IRIN dose of 300 µM) was included as control. The assessment of LC3B, p62 and PD-L1 immunoblotting and IF staining were performed in KPC cells during treatment with the IRIN silicasome or empty silicasomes, as described for the free drug.
structure (smiles),measurement,setting,value
"CCc1c2c(nc3ccc(OC(=O)N4CCC(N5CCCCC5)CC4)cc13)-c1cc3c(c(=O)n1C2)COC(=O)[C@]3(O)CC [IRIN, Irinotecan hydrochloride trihydrate]",IF staining of LC3B and p62/SQSTM1 complexes,"24 h, IRIN 300 µM, CQ 32 µM, RAP 100 nM",contemporaneous appearance of fluorescent LC3B puncta as well as p62 protein complexes
same,PD-L1 expression,"IRIN 300 µM or OX 500 µM, 24 h",robust cell surface expression of PD-L1
same,autophagy flux (Western blotting of LC3 and p62),"IRIN 300 µM or OX 500 µM, 24 h",inhibited autophagy flux
same,phosphorylation of p65 NF-κB subunit,"IRIN 300 µM, 24 hrs",induce the phosphorylation of the p65 (p-p65) subunit of NF-κB
same,ratio of LC3-II vs. LC3-I expression (immunoblotting),"IRIN 75-600 µM, 24 h",dose-dependent increase
